The term IC50 denotes the concentration that gives 50% inhibition. High values mean lower potency, low ones higher potency. The term inhibition denotes the change of the read-out against control, counted positive when it falls.

Bounds are passed on as bounds.

The source of these data is article PMC4613240, “A Series of New Ligustrazine-Triterpenes Derivatives as Anti-Tumor Agents: Design, Synthesis, and Biological Evaluation” (International Journal of Molecular Sciences, 2015).

Experiment [1] concerns Bel-7402 (human hepatocellular carcinoma). The experiment in a line: MTT cytotoxicity assay, Bel-7402. The format is cell-based. The settings on record: maximal tested concentration 20.0 μM. As to the method:
(§1) The cytotoxicity of ligustrazine-triterpenes derivatives was evaluated on five tumor cell lines (Bel-7402, HepG2, HT-29, Hela, and MCF-7) using the standard MTT assay. In the study, the antineoplastic drug cisplatin (DDP) was selected as the positive control. The MDCK cell line was used to test the toxicity of the ligustrazine-triterpenes derivatives and DDP.
(§2) The cell lines Bel-7402 (human hepatocellular carcinoma), HepG2 (human hepatocellular carcinoma), HT-29 (human colon carcinoma), Hela (human cervical cancer), MCF-7 (human breast cancer) were included in this study. All these cell lines were provided by the Chinese Academy of Medical Sciences & Peking Union Medical College. Cultures were maintained as monolayers in RPMI 1640 supplemented with 10% (v/v) heat inactivated fetal bovine serum and 1% (v/v) enicillin/streptomycin (Thermo Technologies, New York, NY, USA) at 37 °C in a humidified atmosphere with 5% CO2. The ligustrazine derivatives under study were dissolved in DMSO (Sigma, St. Louis, MO, USA) and added at required concentrations to the cell culture. Cells incubated without the preparations served as the control.
(§3) The cytotoxicity of the compounds was evaluated on five cancer cell lines (Bel-7402, HepG2, HT-29, Hela, MCF-7) by the standard MTT assay. In short, exponentially growing cells were seeded into 96-well plates at a density 10^4 cells/mL. The plates were incubated at 37 °C in a humidified 5% CO2 atmosphere. Cells were allowed to adhere to the surface for 24 h and then treated with serial dilutions of the compounds for 72 h. Later, aliquots of [3-(4,5-dimethylthiazol-2-yl)-2,5-diphenyltetrazolium bromide] (MTT) solution (20 μL, 5 mg/mL) were added to each well and the incubation was continued for an additional 4 h. Then the supernatant medium was thrown away. The dark blue formazan crystals formed within the healthy cells were solubilized with DMSO (150 μL) and the absorbance was measured in a plate reader (BIORAD 550 spectrophotometer, Bio-rad Life Science Development Ltd., Beijing, China) at 490 nm. Wells containing no drugs were used as control group. The IC50 values were defined as the concentration of compounds that produced a 50% reduction of surviving cells and calculated using Logit-method. Tumor cell growth inhibitory rate was calculated in the following Equation (1): % inhibition = (1 − Sample group OD/Control group OD) × 100% (1)
Background: Tetrazolium dyes change colour on reduction, which living cells bring about.

For experiment [2], the system named is HT-29 (human colon carcinoma). As to the kind of experiment: MTT cytotoxicity assay, HT-29. The format is cell-based. To be noted: maximal tested concentration 20.0 μM. As to the method: as §1, §2, §3
The test system of experiment [3] is MCF-7 (human breast cancer). As to the kind of experiment: MTT cytotoxicity assay, MCF-7. The format is cell-based. To be noted: maximal tested concentration 20.0 μM. As to the method:
as §1, §2, §3

The subject of experiment [4] is Madin-Darby canine kidney cell line (MDCK). As to the kind of experiment: MTT cytotoxicity (nephrotoxicity/selectivity) assay, MDCK. To be noted: Canis lupus familiaris. The class given is cell-based.
Experiment [5] has as its system HepG2 cells. The experiment in a line: Apoptosis analysis by flow cytometry using Annexin V-FITC/PI staining. The class given is cell-based, human. To be noted: 72 h, control 6%. As to the method:
To substantiate the ability of 4a to induce apoptosis, further analysis was carried out using Annexin V-FITC/PI double staining technique in HepG2 cells. Cells stained with Annexin V-FITC and PI were classified as necrotic (Q1; Annexin^−/PI^+), late apoptotic (Q2; Annexin^+/PI^+), intact (Q3; Annexin^−/PI^−), or early apoptotic (Q4; Annexin^+/PI^−) cells. […] Even at the minimum concentration of 5 μM, 4a induced cell apoptosis at a ratio of 75.7% after 72 h of treatment.
The Annexin V-FITC/PI flow cytometric assay was performed to determine the early and late apoptosis in this assay according to the instruction of the manufacturer (Annexin V-FITC/PI, Beijing BioDee Biotech. Co., Ltd., Beijing, China). Briefly, HepG2 cells were treated with various concentrations of compound 4a (5, 6, 7 μM) for 72 h at 37 °C, then the treated cells were washed twice with cold PBS and centrifuged at 1000 rpm for 5 min. The harvested cells were resuspended in 200 μL binding buffer, containing 10 μL Annexin V-FITC. After 15 min, the cells were washed twice and resuspended in 300 μL binding buffer. At the same time, 10 μL PI was added. Then the cells were immediately analyzed with a flow cytometry.
(In general: A flow cytometer gives signals particle by particle.)

Experiment [6] has as its system HepG2 cells. The experiment in a line: Morphological observation using DAPI staining. To be noted: HepG2, 2, 4, 8 μM for 72 h. The class given is cell-based, human. As to the method:
DAPI staining was used to evaluate apoptosis associated morphological changes in this assay. HepG2 cells were seeded in the six well plates at a density of 4 × 10^3 cells/well and incubated overnight. Then the cells were incubated in the presence of 4a at various concentrations (2, 4, 8 μΜ) at 37 °C and 5% CO2 for 72 h. Cells were then washed with PBS, fixed with 4% paraformaldehyde followed by 70% ethanol. Finally, fixed cells were stained with DAPI (DAPI, Molecular Probes/Invitrogen Life Technologies, Carlsbad, CA, USA) at the concentration of 1 mg/mL and incubated for 1 min in dark. The cell morphological changes were observed by fluorescent microscopy and images were captured by digital camera.

The subject of experiment [7] is HepG2 cells. As to the kind of experiment: Morphological observation using AO/EB double staining. The format is cell-based, human. To be noted: HepG2, 2, 4, 8 μM for 72 h. How it is done: To further characterize 4a-induced HepG2 cell apoptosis, the changes in cell morphology of the treated cells were determined using AO/EB double staining. AO is a vital dye that stains both live and dead cells as it can penetrate normal cell membrane. EB stains only cells that have lost their membrane integrity. Cells that stained green indicate viable cells, yellow indicate early apoptosis and orange/red indicate late apoptosis.
Apoptotic study was performed using AO/EB double staining. HepG2 cells were seeded in six well plates at a density of 1 × 10^4 cells/well and allowed to grow for 24 h. Then the cells were incubated in the presence of 4a at various concentrations (2, 4, 8 μΜ) at 37 °C and 5% CO2 for 72 h. After the treatment period, cells were collected and centrifuged; then the cells were suspended in phosphate-buffer saline (PBS) and centrifuged again. The liquid was removed; the cells were suspended in PBS. Then AO/EB (AO/EB, Sigma, USA) solution (1:1 v/v) was added to the cell suspension in a final concentration of 100 μg/mL. Cell morphologies were assessed under a fluorescent microscope.

Take `C=C(C)[C@@H]1CC[C@]2(C(=O)OCc3nc(C)c(C)nc3C)CC[C@]3(C)C(CCC4[C@@]5(C)CC[C@H](O)C(C)(C)C5CC[C@]43C)C12` (stereo partly drawn) [Compound 4a, 3β-Hydroxy-lup-20(29)-ene-28-oic acid-3,5,6-trimethylpyrazin-2-methyl ester]: the IC50 in experiment [1] (72 h) is 4.19 µM; in experiment [1] (Homo sapiens, Bel-7402, 72 h) it was < 5.23 µM; in experiment [2] (72 h), 5.23 µM; in experiment [2] (Homo sapiens, HT-29, 72 h), < 5.23 µM; in experiment [3] (72 h) it was 4.23 µM; in experiment [3] (Homo sapiens, MCF7, 72 h) it was < 5.23 µM. Also, in experiment [4] (maximal tested concentration 20.0 μM, toxicity to MDCK kidney cells), the IC50 was > 20 µM. The inhibition at 10 µM in experiment [4] (MDCK, 10 μM, read-out: inhibition rate against MDCK) is ~26.5%. For the same molecule, the “apoptosis ratio (early and late apoptosis)” value in the experiment on HepG2 cells [5] (HepG2, 5 μM) is listed as 75.7%; in the experiment on HepG2 cells [5] (HepG2, 6 μM) it was 76.6%; with HepG2 cells [5] (HepG2, 7 μM), 83.7%. In the experiment on HepG2 cells [6], the “cell morphology after DAPI staining” value was “displayed morphological features of apoptosis”. In the experiment with HepG2 cells [7], the “cell morphology after AO/EB double staining” value was “increased number of orange- and red-stained cells in a dose dependent manner”.
